Source: ChEMBL document CHEMBL5543158, “Design of Evodiamine-Glucose Conjugates with Improved In Vivo Antitumor Activity” (J Med Chem, 2024)
Calls of active or inactive are those of the source. The calls are words filed in the database; no cut-off is given here.

What was measured:
HCT-116 [1] = test: Induction of apoptosis in 100 pmol GLUT1 siRNA treated human HCT-116 cells assessed as late apoptotic cells at 50 nM incubated for 48 hrs (reference value: 17.13%); type: functional
HCT-116 [2] = test: Antiproliferative activity against human HCT116 cells in presence of 5 uM phloretin measured after 72 hrs by CCK-8 assay; type: functional, cell-based; conditions: HCT-116, 72 h
HCT-116 [3] = test: Antiproliferative activity against human HCT116 cells in presence of 10 uM phloretin measured after 72 hrs by CCK-8 assay; type: functional, cell-based; conditions: HCT-116, 72 h
[4] = Cytotoxicity against HUVEC after 72 hrs by CCK-8 assay; type: toxicity, cell-based; conditions: human, HUVEC cells
[5] = Half life in mouse at 10 mg/kg, ip measured upto 24 hrs; type: ADME, organism-based; conditions: in vivo
[6] = Tmax in mouse at 10 mg/kg, ip measured upto 24 hrs; type: ADME, organism-based; conditions: in vivo
[7] = Cmax in mouse at 10 mg/kg, ip measured upto 24 hrs; type: ADME, organism-based; conditions: in vivo
[8] = AUC (0 to t)in mouse at 10 mg/kg, ip measured upto 24 hrs; type: ADME, organism-based; conditions: in vivo
[9] = MRT (0 to t) in mouse at 10 mg/kg, ip measured upto 24 hrs; type: ADME, organism-based; conditions: in vivo
[10] = Half life in mouse at 20 mg/kg, ip measured upto 24 hrs; type: ADME, organism-based; conditions: in vivo
[11] = Tmax in mouse at 20 mg/kg, ip measured upto 24 hrs; type: ADME, organism-based; conditions: in vivo
[12] = Cmax in mouse at 20 mg/kg, ip measured upto 24 hrs; type: ADME, organism-based; conditions: in vivo
[13] = AUC (0 to t)in mouse at 20 mg/kg, ip measured upto 24 hrs; type: ADME, organism-based; conditions: in vivo
[14] = MRT (0 to t) in mouse at 20 mg/kg, ip measured upto 24 hrs; type: ADME, organism-based; conditions: in vivo
[15] = Plasma protein binding mouse plasma at 2 uM; type: ADME, cell-free; conditions: read-out: PPB (converted)
[16] = Unbound drug concentration in mouse plasma at 2 uM; type: ADME, cell-free
[17] = Stability of the compound in mouse serum assessed as compound remaining measured upto 120 mins; type: ADME, cell-free; conditions: read-out: Stability
HCT-116 [18] = test: In vivo antitumor effect in human HCT-116 cells xenografted mouse model assessed as tumor growth inhibition at 10 mg/kg, ip twice a day administered 21 consecutive days; type: functional; conditions: read-out: TGI
HCT-116 [19] = test: In vivo antitumor effect in human HCT-116 cells xenografted mouse model assessed as tumor growth inhibition at 20 mg/kg, ip twice a day administered 21 consecutive days; type: functional; conditions: read-out: TGI
[20] = Toxicity in mouse xenografted with human HCT-116 cells assessed as organ damage by measuring change in heart at 10 mg/kg, ip twice a day administered 21 consecutive days; type: organism-based; conditions: in vivo
[21] = Toxicity in mouse xenografted with human HCT-116 cells assessed as organ damage by measuring change in liver at 10 mg/kg, ip twice a day administered 21 consecutive days; type: organism-based; conditions: in vivo
[22] = Toxicity in mouse xenografted with human HCT-116 cells assessed as organ damage by measuring change in spleen at 10 mg/kg, ip twice a day administered 21 consecutive days; type: organism-based; conditions: in vivo
[23] = Toxicity in mouse xenografted with human HCT-116 cells assessed as organ damage by measuring change in lungs at 10 mg/kg, ip twice a day administered 21 consecutive days; type: organism-based; conditions: in vivo
[24] = Toxicity in mouse xenografted with human HCT-116 cells assessed as organ damage by measuring change in kidney at 10 mg/kg, ip twice a day administered 21 consecutive days; type: organism-based; conditions: in vivo
HCT-116 [25] = test: In vivo antitumor effect in human HCT-116 cells xenografted mouse model assessed as decrease in dense tumor tissue at 10 to 20 mg/kg, ip twice a day administered 21 consecutive days by H and E staining based assay; type: functional, organism-based; conditions: dose 10-20 mg/kg
HCT-116 [26] = test: In vivo antitumor effect in human HCT-116 cells xenografted mouse model assessed as induction of apoptosis in tumor at 10 to 20 mg/kg, ip twice a day administered 21 consecutive days by TUNEL based assay; type: functional, organism-based; conditions: dose 10-20 mg/kg
HCT-116 [27] = test: In vivo antitumor effect in human HCT-116 cells xenografted mouse model assessed as inhibition of tumor cell proliferation by measuring Ki67 at 10 to 20 mg/kg, ip twice a day administered 21 consecutive days by TUNEL based assay; type: functional, organism-based; conditions: dose 10-20 mg/kg

IC50 (HCT-116 [2]): 210 nM
IC50 (HCT-116 [3]): 430 nM
half-life [5]: 145 min
Tmax [6]: 30 min
Cmax [7]: 4630 ng/mL
AUC(0-t) at 24 h [8]: 4010 ng·h/mL
MRT last at 24 h [9]: 48.1 min
half-life [10]: 372 min
Tmax [11]: 30 min
Cmax [12]: 8840 ng/mL
AUC(0-t) at 24 h [13]: 8430 ng·h/mL
MRT last at 24 h [14]: 59.5 min
fraction unbound at 2 µM [15]: 0.101
Cp(f) [16]: 85.1 ng/mL
remaining at 2 h [17]: 100%
SMILES: CN1c2ccc(F)cc2C(=O)N2CCc3c([nH]c4ccc(O[C@@H]5O[C@H](CO)[C@@H](O)[C@H](O)[C@H]5O)cc34)[C@H]21
Activity (HCT-116 [1]): 21.75%
IC50 at 72 h [4]: 221 nM
inhibition in vivo at 10 mg/kg (HCT-116 [18]): 72%
inhibition in vivo at 20 mg/kg (HCT-116 [19]): 82%
Activity [20]: Non-Toxic
Activity [21]: Non-Toxic
Activity [22]: Non-Toxic
Activity [23]: Non-Toxic
Activity [24]: Non-Toxic
Activity (HCT-116 [25]): Active
Activity (HCT-116 [26]): Active
Activity (HCT-116 [27]): Active
